How the values were obtained:
endothelial cells (CPAE) = experiment: Apoptosis and cell cycle by flow cytometry (Hoechst 33342 and annexin V); format: cell-based, bovine
Protocol: Technique of specific vital staining of DNA with Hoechst 33342 (Sigma).
The endothelial cells (CPAE) were trypsinated and the cell suspension was adjusted to 1·10^6 cells/ml. Hoechst 33342 dye was added at the rate of 20 μg/ml and the cells were incubated for three minutes at ambient temperature under agitation. The percentage of apoptotic cells was analyzed by a flow cytometer (FACS). The cells were then incubated for 30 minutes in darkness (37° C.) and analysis of the cell cycle was performed.
Technique using annexin V (R and D system): A residue of 1·10^6 endothelial cells (CPAE) was resuspended in 1 ml of reaction buffer (100 μl of 10× binding buffer (100 mM Hepes/NaOH pH 7.4, 1.5 M NaCl, 50 mM KCl, 10 mM MgCl2, 18 mM CaCl2), 100 μl of propidium iodide (initial concentration 50 μg/ml), 10 μl of annexin V-FITC and 790 μl of deionized water. The suspension was incubated for 15 minutes in darkness at ambient temperature. The percentage of apoptotic cells was analyzed by flow cytometry.

MDA MB 231 cells = experiment: Athymic murine model of tumor growth; format: in vivo; details: nude mice, MDA MB 231 tumors; AMEP expressed in muscle after gene electrotransfer, doxycycline induction; after 14 days of treatment
Description: The cDNA of AMEP was subcloned at the Eco RV site of the vector pBi (Clonetech, Palo Alto, Calif., USA). The expression of the gene of interest in this vector was under the dependence of a promoter responding to tetracycline in an expression system involving the eukaryote gene Tet-On. The Tet-On vector expresses the transactivator rtTA (reverse tetracycline transcriptional activator) and the vector Tet-tTS expresses the silencer tTS (tetracycline transcriptional silencer). The purifications of the plasmids were performed in a manner such that no endotoxin was present (Maxi endo free Kit, Quiagen). The purified plasmid DNA was dissolved in endotoxin-free sterile 0.9% NaCl at the desired concentration.
20 μg of plasmid pBi-AMEP, 10 μg of plasmid Tet-off and 20 μg of plasmid Tet-on were dissolved in 30 μl of sterile 0.9% NaCl and injected into the tibia cranial muscle of nude or C57B1/6 mice aged 8 weeks and previously anesthetized by intraperitoneal inoculation of pentobarbital as described by Mir et al. (Mir et al., 1999). […]
The MDA-MB-231 cells, which had been previously cultured to 80% confluence, were detached, washed and resuspended in PBS at the rate of 20·10^6 cells/ml. […] The size of the tumors was monitored for 14 days after induction.

CPAE cells = experiment: Model of endothelial cell migration (agarose, 24-well plates); format: cell-based, bovine
Protocol: The migration model was implemented in 24-well plates. 1.5% agarose was dissolved in the culture medium to form a gel in the wells. Half of an agarose cylinder was then inserted in a well. The CPAE cells were added to the free space left in the well and cultured until their confluence. The piece of agarose was then removed to allow the cells to migrate and AMEP was added, at the desired concentrations, to the culture medium. Then, a transparent graph paper was placed under the plate to determine the migration rate of the cells using an ocular micrometer under reverse microscope. The experiments were performed in duplicate and repeated three times. The results were expressed in percentage in relation to the control.

[1] = system: MDA MB 231 subcutaneous solid tumors; experiment: Quantification of tumoral angiogenesis (CD31 immunohistochemistry and image analysis); format: in vivo, nude mice
Protocol: The tumor tissues were fixed in ethanol. Sections of 5 μm were prepared in paraffin. The endogenous peroxidase was extinguished by 3% of H2O2 for 10 minutes so that the sections could be used in immunohistochemistry. After washing the sections with distilled water then saturation with 1:10 Optimax serum (BioGenex, San Ramon, Calif.) for 10 minutes, the slides were incubated for 1 h with an anti-CD31 rat antibody (endothelial cell adhesion molecule) at 1:50. After two washings with Optimax for 4 minutes, the slides were incubated with an anti-rat goat polyclonal antibody coupled to biotin (1/50) followed by two 4-minute washings with Optimax. The slides were then treated with a DAB chromogenic substrate for 10 minutes, washed with distilled water, counterstained with Mayer's hematoxylin and mounted on Pertex. All of the slides were immunotagged and counterstained on the same day to ensure a standardized intensity of the tagging.
For each animal, a representative histological sample of the sections tagged with CD31 was subjected to image analysis using an AxiophotZeiss microscope (Germany) and a Sony 3CCD camera (resolution 768×576 pixels). Selection of an enlargement×100 allowed digitization of the totality of the sample. […] The images were analyzed with a specific Linux-based program producing a quantitative index from 0 to 255. […]

AMEP: disintegrin domain of human metargidin (Met-420 to Glu-511, SEQ ID NO. 2), 91 amino acids, 9.7 kDa; recombinant or expressed in vivo by gene electrotransfer
% of apoptotic cells, Hoechst 33342 method (endothelial cells (CPAE); CPAE, AMEP 5 μg/ml, control 3.9 ± 1.1, mean±SEM): 12.6 ± 3.7%
% of apoptotic cells, Annexin-V method (endothelial cells (CPAE); CPAE, AMEP 5 μg/ml, control 4.6 ± 0.9, mean±SEM): 12.8 ± 2.5%
modification of the cell cycle (endothelial cells (CPAE); Hoechst 33342, not shown): no modification of the cell cycle
percentage of apoptotic cells multiplied by (factor versus control) (endothelial cells (CPAE); both methods (Hoechst 33342, annexin-V)): 3
inhibition of tumor volume (MDA MB 231 cells): 78%
number of dead endothelial cells (floating in the culture medium) (CPAE cells; 10 μg/ml, phase-contrast microscope (FIG. 3)): augmentation of the number of dead endothelial cells
inhibition of cell migration (CPAE cells; CPAE, 10 μg/ml): complete inhibition
effect on the displacement rate of the cells (CPAE cells; CPAE, 2-10 μg/ml): dose dependent
statistical index of tumor vascularization, Mean ([1]; CD31-tagged tumor sections, index scale 0 to 255, control group 2.96): 1.38
inhibition of the number of vessels within the tumors ([1]; tumors of nude mice treated with AMEP versus control): 53.4%
